Measurements published in PMC6979384, “Characterization of the plant homeodomain (PHD) reader family for their histone tail interactions” (Epigenetics & Chromatin, 2020).

What was measured:
Experiment in all cases: Histone peptide microarray
Assay type in all cases: binding, human
CHD4 (PPCC) = details: for Array Heatmap signal, CHD4 (PPCC): GST-tagged CHD4 (PPCC = Dual PHD + Dual Chromodomain), histone peptide array, arrays performed twice, n of 4
In short: (§1)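 Recombinant GST-PHD protein at 0.5 μM; 293-member modified histone peptide array; signals averaged from four repeats ± SD.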

MORC3 (CW) = details: for Array Heatmap signal, MORC3 (CW): GST-tagged MORC3 (CW = CW-type Zn-finger), histone peptide array, arrays performed twice, n of 4
In short: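 GST-PHD reader, 0.5 μM, probed on 293-peptide histone array (single/combinatorial PTMs); optimized array protocol; signal = mean ± SD, n = 4.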

ING4 = details: for Array Heatmap signal, ING4: GST-tagged ING4, histone peptide array, arrays performed twice, n of 4
In short: as §1

DIDO1 = details: for Array Heatmap signal, DIDO1: GST-tagged DIDO1, histone peptide array, arrays performed twice, n of 4
In short: as §1

ING3 = details: for Array Heatmap signal, ING3: GST-tagged ING3, histone peptide array, arrays performed twice, n of 4
In short: as §1

TAF3 = details: for Array Heatmap signal, TAF3: GST-tagged TAF3, histone peptide array, arrays performed twice, n of 4
In short: as §1

TRIM66 (PB) = details: for Array Heatmap signal, TRIM66 (PB): GST-tagged TRIM66 (PB = PHD + Bromodomain), histone peptide array, arrays performed twice, n of 4
In short: as §1

ING1 = details: for Array Heatmap signal, ING1: GST-tagged ING1, histone peptide array, arrays performed twice, n of 4
In short: as §1

MLL5 = details: for Array Heatmap signal, MLL5: GST-tagged MLL5, histone peptide array, arrays performed twice, n of 4
In short: as §1

BPTF (PB) = details: for Array Heatmap signal, BPTF (PB): GST-tagged BPTF (PB = PHD + Bromodomain), histone peptide array, arrays performed twice, n of 4
In short: as §1

CHD5 (PCC) = details: for Array Heatmap signal, CHD5 (PCC): GST-tagged CHD5 (PCC = PHD + Dual Chromodomain), histone peptide array, arrays performed twice, n of 4
In short: as §1

KDM5B (1) = details: for Array Heatmap signal, KDM5B (1): GST-tagged KDM5B (1), histone peptide array, arrays performed twice, n of 4
In short: as §1

PHF21A = details: for Array Heatmap signal, PHF21A: GST-tagged PHF21A, histone peptide array, arrays performed twice, n of 4
In short: as §1

KDM5B (3) = details: for Array Heatmap signal, KDM5B (3): GST-tagged KDM5B (3), histone peptide array, arrays performed twice, n of 4
In short: as §1

RAG2 = details: for Array Heatmap signal, RAG2: GST-tagged RAG2, histone peptide array, arrays performed twice, n of 4
In short: as §1

SP140L = details: for Array Heatmap signal, SP140L: GST-tagged SP140L, histone peptide array, arrays performed twice, n of 4
In short: as §1

PHF8 = details: for Array Heatmap signal, PHF8: GST-tagged PHF8, histone peptide array, arrays performed twice, n of 4
In short: as §1

PHF23 = details: for Array Heatmap signal, PHF23: GST-tagged PHF23, histone peptide array, arrays performed twice, n of 4
In short: as §1

CHD5 (PPCC) = details: for Array Heatmap signal, CHD5 (PPCC): GST-tagged CHD5 (PPCC = Dual PHD + Dual Chromodomain), histone peptide array, arrays performed twice, n of 4
In short: as §1

PHRF1 (RP) = details: for Array Heatmap signal, PHRF1 (RP): GST-tagged PHRF1 (RP), histone peptide array, arrays performed twice, n of 4
In short: as §1

AIRE (PP) = details: for Array Heatmap signal, AIRE (PP): GST-tagged AIRE (PP), histone peptide array, arrays performed twice, n of 4
In short: as §1

PHF2 = details: for Array Heatmap signal, PHF2: GST-tagged PHF2, histone peptide array, arrays performed twice, n of 4
In short: as §1

DPF2 (PPC2W2) = details: for Array Heatmap signal, DPF2 (PPC2W2): GST-tagged DPF2 (PPC2W2 = Dual PHD + C2W2-type Zn-finger), histone peptide array, arrays performed twice, n of 4
In short: as §1

PHF13 = details: for Array Heatmap signal, PHF13: GST-tagged PHF13, histone peptide array, arrays performed twice, n of 4
In short: as §1

BAZ2B = details: for Array Heatmap signal, BAZ2B: GST-tagged BAZ2B, histone peptide array, arrays performed twice, n of 4
In short: as §1

ING2 = details: for Array Heatmap signal, ING2: GST-tagged ING2, histone peptide array, arrays performed twice, n of 4
In short: as §1

KDM4C (TTP) = details: for Array Heatmap signal, KDM4C (TTP): GST-tagged KDM4C (TTP = Tandem Tudor domain + PHD), histone peptide array, arrays performed twice, n of 4
In short: as §1

KDM7A = details: for Array Heatmap signal, KDM7A: GST-tagged KDM7A, histone peptide array, arrays performed twice, n of 4
In short: as §1

ING5 = details: for Array Heatmap signal, ING5: GST-tagged ING5, histone peptide array, arrays performed twice, n of 4
In short: as §1

KDM5A (3) = details: for Array Heatmap signal, KDM5A (3): GST-tagged KDM5A (3), histone peptide array, arrays performed twice, n of 4
In short: as §1

KDM5A (1) = details: for Array Heatmap signal, KDM5A (1): GST-tagged KDM5A (1), histone peptide array, arrays performed twice, n of 4
In short: as §1

H4K20me3 (1-23): H4 1-23
Array Heatmap value (peptide array signal) (CHD4 (PPCC); CHD4 (PPCC), sheet "Array Heatmap", each array performed twice, total n = 4): 0.5546
Array Heatmap value (peptide array signal) (MORC3 (CW); MORC3 (CW), sheet "Array Heatmap", each array performed twice, total n = 4): 0.3692
Array Heatmap value (peptide array signal) (ING4; ING4, sheet "Array Heatmap", each array performed twice, total n = 4): 0.4304
Array Heatmap value (peptide array signal) (DIDO1; DIDO1, sheet "Array Heatmap", each array performed twice, total n = 4): 0.6567
Array Heatmap value (peptide array signal) (ING3; ING3, sheet "Array Heatmap", each array performed twice, total n = 4): 0.465
Array Heatmap value (peptide array signal) (TAF3; TAF3, sheet "Array Heatmap", each array performed twice, total n = 4): 0.2546
Array Heatmap value (peptide array signal) (TRIM66 (PB); TRIM66 (PB), sheet "Array Heatmap", each array performed twice, total n = 4): 0.5898
Array Heatmap value (peptide array signal) (ING1; ING1, sheet "Array Heatmap", each array performed twice, total n = 4): 0.5131
Array Heatmap value (peptide array signal) (MLL5; MLL5, sheet "Array Heatmap", each array performed twice, total n = 4): 0.5073
Array Heatmap value (peptide array signal) (BPTF (PB); BPTF (PB), sheet "Array Heatmap", each array performed twice, total n = 4): 0.3468
Array Heatmap value (peptide array signal) (CHD5 (PCC); CHD5 (PCC), sheet "Array Heatmap", each array performed twice, total n = 4): 0.7553
Array Heatmap value (peptide array signal) (KDM5B (1); KDM5B (1), sheet "Array Heatmap", each array performed twice, total n = 4): 0.6332
Array Heatmap value (peptide array signal) (PHF21A; PHF21A, sheet "Array Heatmap", each array performed twice, total n = 4): 0.4514
Array Heatmap value (peptide array signal) (KDM5B (3); KDM5B (3), sheet "Array Heatmap", each array performed twice, total n = 4): 0.4599
Array Heatmap value (peptide array signal) (RAG2; RAG2, sheet "Array Heatmap", each array performed twice, total n = 4): 0.2424
Array Heatmap value (peptide array signal) (SP140L; SP140L, sheet "Array Heatmap", each array performed twice, total n = 4): 0.3602
Array Heatmap value (peptide array signal) (PHF8; PHF8, sheet "Array Heatmap", each array performed twice, total n = 4): 0.3429
Array Heatmap value (peptide array signal) (PHF23; PHF23, sheet "Array Heatmap", each array performed twice, total n = 4): 0.5181
Array Heatmap value (peptide array signal) (CHD5 (PPCC); CHD5 (PPCC), sheet "Array Heatmap", each array performed twice, total n = 4): 0.5147
Array Heatmap value (peptide array signal) (PHRF1 (RP); PHRF1 (RP), sheet "Array Heatmap", each array performed twice, total n = 4): 0.4228
Array Heatmap value (peptide array signal) (AIRE (PP); AIRE (PP), sheet "Array Heatmap", each array performed twice, total n = 4): 0.4048
Array Heatmap value (peptide array signal) (PHF2; PHF2, sheet "Array Heatmap", each array performed twice, total n = 4): 0.4783
Array Heatmap value (peptide array signal) (DPF2 (PPC2W2); DPF2 (PPC2W2), sheet "Array Heatmap", each array performed twice, total n = 4): 0.6148
Array Heatmap value (peptide array signal) (PHF13; PHF13, sheet "Array Heatmap", each array performed twice, total n = 4): 0.5943
Array Heatmap value (peptide array signal) (BAZ2B; BAZ2B, sheet "Array Heatmap", each array performed twice, total n = 4): 0.4188
Array Heatmap value (peptide array signal) (ING2; ING2, sheet "Array Heatmap", each array performed twice, total n = 4): 0.5794
Array Heatmap value (peptide array signal) (KDM4C (TTP); KDM4C (TTP), sheet "Array Heatmap", each array performed twice, total n = 4): 0.4703
Array Heatmap value (peptide array signal) (KDM7A; KDM7A, sheet "Array Heatmap", each array performed twice, total n = 4): 0.329
Array Heatmap value (peptide array signal) (ING5; ING5, sheet "Array Heatmap", each array performed twice, total n = 4): 0.3228
Array Heatmap value (peptide array signal) (KDM5A (3); KDM5A (3), sheet "Array Heatmap", each array performed twice, total n = 4): 0.4449
Array Heatmap value (peptide array signal) (KDM5A (1); KDM5A (1), sheet "Array Heatmap", each array performed twice, total n = 4): 0.4224

H4R3me2a: H4 1-23 [Peptide H4R3me2a]
Array Heatmap signal, CHD4 (PPCC) (CHD4 (PPCC)): 0.544
Array Heatmap signal, MORC3 (CW) (MORC3 (CW)): 0.3932
Array Heatmap signal, ING4 (ING4): 0.4842
Array Heatmap signal, DIDO1 (DIDO1): 0.7103
Array Heatmap signal, ING3 (ING3): 0.4883
Array Heatmap signal, TAF3 (TAF3): 0.3922
Array Heatmap signal, TRIM66 (PB) (TRIM66 (PB)): 0.665
Array Heatmap signal, ING1 (ING1): 0.5321
Array Heatmap signal, MLL5 (MLL5): 0.6462
Array Heatmap signal, BPTF (PB) (BPTF (PB)): 0.3886
Array Heatmap signal, CHD5 (PCC) (CHD5 (PCC)): 0.8242
Array Heatmap signal, KDM5B (1) (KDM5B (1)): 0.6754
Array Heatmap signal, PHF21A (PHF21A): 0.4696
Array Heatmap signal, KDM5B (3) (KDM5B (3)): 0.6206
Array Heatmap signal, RAG2 (RAG2): 0.3803
Array Heatmap signal, SP140L (SP140L): 0.3676
Array Heatmap signal, PHF8 (PHF8): 0.391
Array Heatmap signal, PHF23 (PHF23): 0.5402
Array Heatmap signal, CHD5 (PPCC) (CHD5 (PPCC)): 0.5601
Array Heatmap signal, PHRF1 (RP) (PHRF1 (RP)): 0.4379
Array Heatmap signal, AIRE (PP) (AIRE (PP)): 0.5327
Array Heatmap signal, PHF2 (PHF2): 0.4976
Array Heatmap signal, DPF2 (PPC2W2) (DPF2 (PPC2W2)): 0.6681
Array Heatmap signal, PHF13 (PHF13): 0.6445
Array Heatmap signal, BAZ2B (BAZ2B): 0.5399
Array Heatmap signal, ING2 (ING2): 0.6586
Array Heatmap signal, KDM4C (TTP) (KDM4C (TTP)): 0.5587
Array Heatmap signal, KDM7A (KDM7A): 0.5968
Array Heatmap signal, ING5 (ING5): 0.4061
Array Heatmap signal, KDM5A (3) (KDM5A (3)): 0.5304
Array Heatmap signal, KDM5A (1) (KDM5A (1)): 0.4898

H4R3me2s + K5ac + K8ac + K12ac + K16ac + K20ac: H4 1-23
Array Heatmap signal, CHD4 (PPCC) (CHD4 (PPCC)): 0.5891
Array Heatmap signal, MORC3 (CW) (MORC3 (CW)): 0.4281
Array Heatmap signal, ING4 (ING4): 0.4768
Array Heatmap signal, DIDO1 (DIDO1): 0.8519
Array Heatmap signal, ING3 (ING3): 0.4923
Array Heatmap signal, TAF3 (TAF3): 0.282
Array Heatmap signal, TRIM66 (PB) (TRIM66 (PB)): 0.6231
Array Heatmap signal, ING1 (ING1): 0.5887
Array Heatmap signal, MLL5 (MLL5): 0.5888
Array Heatmap signal, BPTF (PB) (BPTF (PB)): 0.483
Array Heatmap signal, CHD5 (PCC) (CHD5 (PCC)): 0.7755
Array Heatmap signal, KDM5B (1) (KDM5B (1)): 0.6719
Array Heatmap signal, PHF21A (PHF21A): 0.4472
Array Heatmap signal, KDM5B (3) (KDM5B (3)): 0.4887
Array Heatmap signal, RAG2 (RAG2): 0.3093
Array Heatmap signal, SP140L (SP140L): 0.3449
Array Heatmap signal, PHF8 (PHF8): 0.384
Array Heatmap signal, PHF23 (PHF23): 0.5758
Array Heatmap signal, CHD5 (PPCC) (CHD5 (PPCC)): 0.5595
Array Heatmap signal, PHRF1 (RP) (PHRF1 (RP)): 0.4884
Array Heatmap signal, AIRE (PP) (AIRE (PP)): 0.4445
Array Heatmap signal, PHF2 (PHF2): 0.6188
Array Heatmap signal, DPF2 (PPC2W2) (DPF2 (PPC2W2)): 0.6954
Array Heatmap signal, PHF13 (PHF13): 0.6071
Array Heatmap signal, BAZ2B (BAZ2B): 0.4891
Array Heatmap signal, ING2 (ING2): 0.6618
Array Heatmap signal, KDM4C (TTP) (KDM4C (TTP)): 0.4958
Array Heatmap signal, KDM7A (KDM7A): 0.3478
Array Heatmap signal, ING5 (ING5): 0.3711
Array Heatmap signal, KDM5A (3) (KDM5A (3)): 0.5291
Array Heatmap signal, KDM5A (1) (KDM5A (1)): 0.4598
